Data on 16 molecules can be found in ChEMBL document CHEMBL1139194, “Antitumor agents. 256. Conjugation of paclitaxel with other antitumor agents: evaluation of novel conjugates as cytotoxic agents” (Bioorg Med Chem Lett, 2007).

SMILES strings stand for the structures.

Data set [1] relates to 1A9. Nature of the data set: Cytotoxicity against human 1A9 cells by sulforhodamine B assay. Type of data set: functional. As to conditions: read-out: ED50 (the source's name).
The test system of data set [2] is A549. Briefly: Cytotoxicity against human A549 cells by sulforhodamine B assay. To be noted: read-out: ED50 (the source's name). The class given is functional.
The subject of data set [3] is MCF7. Briefly: Cytotoxicity against human MCF7 cells by sulforhodamine B assay. The class given is functional. To be noted: read-out: ED50 (the source's name).
For data set [4], the system named is LNCaP. Briefly: Cytotoxicity against human LNCAP cells by sulforhodamine B assay. To be noted: read-out: ED50 (the source's name). Type of data set: functional.
For data set [5], the system named is PC-3. Nature of the data set: Cytotoxicity against human PC3 cells by sulforhodamine B assay. Type of data set: functional. As to conditions: read-out: ED50 (the source's name).
Data set [6] has as its system DU-145. Briefly: Cytotoxicity against human DU145 cells by sulforhodamine B assay. The class given is functional. As to conditions: read-out: ED50 (the source's name).
Data set [7] concerns KB. Nature of the data set: Cytotoxicity against human KB cells by sulforhodamine B assay. Type of data set: functional. As to conditions: read-out: ED50 (the source's name).
The nature of data set [8]: Cytotoxicity against multi drug-resistant human KBVIN cells by sulforhodamine B assay. The class given is functional. To be noted: read-out: ED50 (the source's name).
The nature of data set [9]: Cytotoxicity against human MRC5 cells by sulforhodamine B assay. Type of data set: cell-based. As to conditions: read-out: ED50 (the source's name).
The subject of data set [10] is HUVEC. Nature of the data set: Antiangiogenesis activity against HUVEC cells. Type of data set: functional. As to conditions: Homo sapiens, read-out: ED50 (the source's name).
Data set [11] is described as follows: Cytotoxicity against multi drug-resistant human KBVIN cells at 20 ug/mL by sulforhodamine B assay. Type of data set: functional.

For the molecule `CC[C@@]1(O)C(=O)OCn2c1cc1c(c2=O)Cc2c-1nc1ccccc1c2C=O`, the EC50 in [1] amounted to 4.3 nM; in [2] it was 12.8 nM; in [3] it was 4.3 nM; in data set [4], 4.3 nM; in [5] it was 18.4 nM; in data set [6], 7.7 nM. In addition, the EC50 stood at 80.6 nM in data set [7] and 25 nM in [8].

Consider `COc1cc([C@@H]2c3cc4c(cc3[C@@H](NCc3ccc(C(=O)O[C@H]5C[C@H]6OC[C@@]6(OC(C)=O)[C@H]6[C@H](OC(=O)c7ccccc7)[C@]7(O)C[C@H](OC(=O)[C@H](O)[C@@H](NC(=O)c8ccccc8)c8ccccc8)C(C)=C([C@@H](OC(C)=O)C(=O)[C@]56C)C7(C)C)cc3)[C@H]3COC(=O)[C@H]23)OCO4)cc(OC)c1O`, for which the EC50 in data set [1] turned out to be 75.7 nM; in [2], 124 nM; in data set [3] it was 68.2 nM; in data set [4], 128 nM; in data set [5], 192 nM; in data set [6] it was 168 nM. Further, the EC50 is 87.4 nM in data set [7] and 5200 nM in [8].

Turning to `COc1cc2c(c(OC)c1O)-c1ccc(SC)c(=O)cc1[C@@H](NC(C)=O)CC2`, the EC50 in [1] stood at 43.6 nM; in data set [2] it was 99.8 nM; in data set [3], 59.9 nM; in data set [4], 59.9 nM; in [5] it was 112 nM; in data set [6] it was 114 nM. Moreover, the EC50 in data set [7] is 47.9 nM; in data set [8] it was 7430 nM.

With `CC[C@@]1(O)C(=O)OCn2c1cc1c(c2=O)Cc2c-1nc1ccccc1c2CNCCC(=O)O[C@@H](C(=O)O[C@H]1C[C@@]2(O)[C@@H](OC(=O)c3ccccc3)[C@@H]3[C@]4(OC(C)=O)CO[C@@H]4C[C@H](O)[C@@]3(C)C(=O)[C@H](OC(C)=O)C(=C1C)C2(C)C)[C@@H](NC(=O)c1ccccc1)c1ccccc1`, the EC50 turned out to be 1.5 nM in data set [1]; 2.6 nM in data set [2]; 2.7 nM in [3]; 1.2 nM in data set [4]; 3.1 nM in [5]; 2.3 nM in [6]. Moreover, the EC50 was determined as 1.9 nM in data set [7], 2050 nM in data set [8] and 2.09 nM in data set [10]. The CC50 in data set [9] was found to be 6130 nM.

For the molecule `COc1cc2c(c(OC)c1O)-c1ccc(OC)c(=O)cc1[C@@H](NC(C)=O)CC2` [2-DESMETHYLCOLCHICIN], the EC50 amounted to 184 nM in data set [1]; 951 nM in data set [2]; 361 nM in data set [3]; 325 nM in [4]; 475 nM in [5]; 612 nM in data set [6]. The EC50 in data set [7] is 146 nM; in data set [8], 29000 nM.

As for `COc1ccc2c(c1)[C@@H](NC(=O)CCC(=O)O[C@@H](C(=O)O[C@H]1C[C@@]3(O)[C@@H](OC(=O)c4ccccc4)[C@@H]4[C@]5(OC(C)=O)CO[C@@H]5C[C@H](O)[C@@]4(C)C(=O)[C@H](OC(C)=O)C(=C1C)C3(C)C)[C@@H](NC(=O)c1ccccc1)c1ccccc1)CCc1cc(OC)c(OC)c(OC)c1-2`, the EC50 in data set [1] was 14 nM; in data set [2], 28.5 nM; in data set [3], 29.2 nM; in data set [4], 23.7 nM; in data set [5], 70.4 nM; in data set [6], 34.4 nM. Moreover, the EC50 stood at 21.6 nM in [7] and 15.8 nM in data set [10]. The molecule further came in with an inhibition at 20 µg/mL in [11] below 50%.

Turning to `CC(=O)O[C@H]1C(=O)[C@@]2(C)[C@H]([C@H](OC(=O)c3ccccc3)[C@]3(O)C[C@H](OC(=O)[C@H](O)[C@@H](NC(=O)c4ccccc4)c4ccccc4)C(C)=C1C3(C)C)[C@]1(OC(C)=O)CO[C@@H]1C[C@@H]2O` [PACLITAXEL], the EC50 in data set [1] was determined as 1 nM; in data set [2], 2.3 nM; in [3] it was 1.1 nM; in [4], 2.6 nM; in [5], 55.5 nM; in data set [6], 1.3 nM. Moreover, the EC50 in data set [7] was 1.8 nM; in [8] it was 311 nM.

As for `COc1ccc2c(c1)[C@@H](/N=C/c1ccc(C(=O)O[C@H]3C[C@H]4OC[C@@]4(OC(C)=O)[C@H]4[C@H](OC(=O)c5ccccc5)[C@]5(O)C[C@H](OC(=O)[C@H](O)[C@@H](NC(=O)c6ccccc6)c6ccccc6)C(C)=C([C@@H](OC(C)=O)C(=O)[C@]34C)C5(C)C)cc1)CCc1cc(OC)c(OC)c(OC)c1-2`, the EC50 stood at 2.3 nM in [1]; 3.8 nM in data set [2]; 2.3 nM in data set [7]; 308 nM in data set [8]; 293 nM in [10].

On to `CC[C@@]1(O)C(=O)OCn2c1cc1c(c2=O)Cc2c-1nc1ccccc1c2/C=N/CCCC(=O)O[C@@H](C(=O)O[C@H]1C[C@@]2(O)[C@@H](OC(=O)c3ccccc3)[C@@H]3[C@]4(OC(C)=O)CO[C@@H]4C[C@H](O)[C@@]3(C)C(=O)[C@H](OC(C)=O)C(=C1C)C2(C)C)[C@@H](NC(=O)c1ccccc1)c1ccccc1`, for which the EC50 in data set [1] came to 1 nM; in data set [2] it was 1.9 nM; in [3], 34.1 nM; in data set [4], 0.34 nM; in data set [5], 19.4 nM; in data set [6], 1.9 nM. Also, the EC50 in data set [7] stood at 1.5 nM; in [8], 56.3 nM; in [10] it was 0.98 nM. Besides, in [9], the CC50 amounted to 244 nM.

`COc1cc([C@@H]2c3cc4c(cc3[C@@H](N)[C@H]3COC(=O)[C@H]23)OCO4)cc(OC)c1O`: the EC50 is 739 nM in data set [1]; 1070 nM in data set [2]; 686 nM in data set [3]; 680 nM in data set [4]; 1230 nM in data set [5]; 3110 nM in [6]. Besides, the results for the EC50 in data set [7] and in data set [8] were 111 nM and 2050 nM, respectively.

With `COc1cc([C@@H]2c3cc4c(cc3[C@@H](O[C@H]3O[C@H]5CO[C@H](C)O[C@@H]5[C@@H](O)[C@@H]3O)[C@H]3COC(=O)[C@H]23)OCO4)cc(OC)c1O`, the EC50 in data set [1] is 285 nM; in [2] it was 1610 nM; in data set [3] it was 11700 nM; in [4], 530 nM; in [5] it was 9450 nM; in data set [6] it was 1600 nM. The EC50 amounted to 1360 nM in [7] and 14400 nM in [8]. Besides, the CC50 in data set [9] was above 30 nM.

For the molecule `COc1cc([C@@H]2c3cc4c(cc3[C@@H](Nc3ccc(C(=O)NCCCC(=O)O[C@@H](C(=O)O[C@H]5C[C@@]6(O)[C@@H](OC(=O)c7ccccc7)[C@@H]7[C@]8(OC(C)=O)CO[C@@H]8C[C@H](O)[C@@]7(C)C(=O)[C@H](OC(C)=O)C(=C5C)C6(C)C)[C@@H](NC(=O)c5ccccc5)c5ccccc5)cc3)[C@H]3COC(=O)[C@H]23)OCO4)cc(OC)c1O`, the EC50 in data set [1] came to 8.1 nM; in [2] it was 23.7 nM; in data set [3], 22.1 nM; in [4], 10.2 nM; in [5], 42.8 nM; in data set [6], 32.5 nM. The EC50 turned out to be 13.9 nM in data set [7] and 6230 nM in [8]. Besides, in data set [9], the CC50 was 6170 nM.

`COc1cc([C@@H]2c3cc4c(cc3[C@@H](/N=C/c3ccc(C(=O)O[C@H]5C[C@H]6OC[C@@]6(OC(C)=O)[C@H]6[C@H](OC(=O)c7ccccc7)[C@]7(O)C[C@H](OC(=O)[C@H](O)[C@@H](NC(=O)c8ccccc8)c8ccccc8)C(C)=C([C@@H](OC(C)=O)C(=O)[C@]56C)C7(C)C)cc3)[C@H]3COC(=O)[C@H]23)OCO4)cc(OC)c1O`: the EC50 in data set [1] came out at 60.1 nM; in [2], 111 nM; in data set [3], 48.6 nM; in data set [4], 90.1 nM; in data set [5], 145 nM; in data set [6] it was 139 nM. The EC50 in [7] is 53.8 nM; in [8], 6220 nM; in [10], 230 nM.

As to `COc1ccc2c(c1)[C@@H](/N=C/c1ccc(C(=O)O[C@@H](C(=O)O[C@H]3C[C@@]4(O)[C@@H](OC(=O)c5ccccc5)[C@@H]5[C@]6(OC(C)=O)CO[C@@H]6C[C@H](O)[C@@]5(C)C(=O)[C@H](OC(C)=O)C(=C3C)C4(C)C)[C@@H](NC(=O)c3ccccc3)c3ccccc3)cc1)CCc1cc(OC)c(OC)c(OC)c1-2`, the EC50 in [1] amounted to 2.3 nM; in data set [2], 3.8 nM; in data set [7], 5.4 nM; in [8], 308 nM; in data set [10], 43 nM.

`CC[C@@]1(O)C(=O)OCn2c1cc1c(c2=O)Cc2c-1nc1ccccc1c2/C=N/CCC(=O)O[C@@H](C(=O)O[C@H]1C[C@@]2(O)[C@@H](OC(=O)c3ccccc3)[C@@H]3[C@]4(OC(C)=O)CO[C@@H]4C[C@H](O)[C@@]3(C)C(=O)[C@H](OC(C)=O)C(=C1C)C2(C)C)[C@@H](NC(=O)c1ccccc1)c1ccccc1`: the EC50 in data set [1] stood at 1.6 nM; in [2], 2.6 nM; in [3], 26.7 nM; in [4], 3 nM; in data set [5], 14.8 nM; in data set [6], 3.7 nM. The EC50 in data set [7] worked out at 1.3 nM; in [8], 62.4 nM; in [10] it was 0.73 nM. In data set [9], the CC50 came out at 178 nM.

Turning to `CC[C@@]1(O)C(=O)OCc2c1cc1n(c2=O)Cc2cc3ccccc3nc2-1` [CAMPTOTHECIN], the EC50 was determined as 3.2 nM in data set [1]; 6.9 nM in data set [2]; 3.2 nM in data set [3]; 2 nM in [4]; 16.7 nM in data set [5]; 10.9 nM in data set [6]. In addition, the figures for the EC50 in [7] and in data set [8] were 20.9 nM and 15 nM, respectively.
